The record followed here is patent US8466176B2 (priority 2008, dated 2013).

The nature of one series: logP(HCOOH) reported with HPLC/MS. The conditions noted are these: HCOOH (formic acid), logP(HCOOH), HPLC/MS.
Take `CN(C)c1cccc(C(=NOCc2cccc(N)n2)c2nnnn2C)c1` [6-{[({[3-(dimethylamino)phenyl](1-methyl-1H-tetrazol-5-yl)methylene}amino)oxy]methyl}pyridin-2-amine]: the chromatographic logP (usually lipophilicity estimated from chromatographic retention) came out at 1.19.
For `Cc1cccc(C2OCCO2)n1` [2-(1,3-dioxolan-2-yl)-6-methylpyridine], the chromatographic logP was 1.21.
`Cc1c(F)ccc(Br)[n+]1[O-]` [6-bromo-3-fluoro-2-methylpyridine 1-oxide] yielded a chromatographic logP of 0.56.
`CCCCCCN(C=O)c1cccc(C)n1` [N-hexyl-N-(6-methylpyridin-2-yl)formamide]: the chromatographic logP came to 3.46.
The same measure, in the same setting: the figure for `Cn1nnnc1C(=NOCc1cccc(C=NO)n1)c1ccccc1` [Example 177, N-({6-[(hydroxyimino)methyl]pyridin-2-yl}methoxy)-1-(1-methyl-1H-tetrazol-5-yl)-1-phenylmethanimine] is 2.16.
On the same count and under the same terms, the result for `CSc1cccc(C(=NOCc2cccc(N)n2)c2nnnn2C)c1` [6-{[({[3-(methylsulfanyl)phenyl](1-methyl-1H-tetrazol-5-yl)methylene}amino)oxy]methyl}pyridin-2-amine] reads 1.42.
Still for that read-out and setting: the figure for `CCCCSC(=O)Nc1cccc(CON=C(c2ccccc2)c2nnnn2C)n1` [S-butyl {6-[({[(1-methyl-1H-tetrazol-5-yl)(phenyl)methylene]amino}oxy)methyl]pyridin-2-yl}carbamothioate] is 4.25.

The series is the same for the next values; noted with them: HPLC, logP(HCOOH), HPLC/MS.
`Cn1nnnc1C(=NOCc1cccc(CN)n1)c1ccccc1` [Example 52, 1-{6-[({[(1-methyl-1H-tetrazol-5-yl)(phenyl)methylene]amino}oxy)methyl]pyridin-2-yl}methanamine]: the chromatographic logP was 1.23.

The series is the same for the next values; noted with them: HPLC/MS.
On to `CCCCCONc1cccc(CON=C(c2ccccc2)c2nnnn2C)n1` [Example 269, 6-[({[(1-methyl-1H-tetrazol-5-yl)(phenyl)methylene]amino}oxy)methyl]-(pentyloxy)pyridin-2-amine], for which the “logP(HCOOH)” value is recorded as 3.87.

The series is the same for the next values; noted with them: logP(HCOOH), HPLC/MS.
On to `Cc1nnnn1C(=NOCc1csc(C#CC2CC2)n1)c1ccccc1` [Example 159], for which the chromatographic logP worked out at 3.65.

The same series, now with this note: method [a]: HPLC on reversed phase columns, pH 2.3 with 0.1% phosphoric acid and acetonitrile as eluent.
With `Cn1nnnc1C(=NOCc1cccc(N(CC2CC2)C(=O)OC(C)(C)C)n1)c1ccccc1` [Example 142], the log p was 4.7^[a].
In the case of `CC(=O)OCCCC#Cc1nc(CON=C(c2ccccc2)c2nnnn2C)cs1` [Example 137], the log p was 3.17^[a].
Turning to `Cn1nnnc1C(=NOCc1cccc(NCCCC2CCCCC2)n1)c1ccccc1` [Example 200], the log p is 3.17^[a].
As for `Cn1nnnc1C(=NOCc1cccc(NC/C=C/C#CC(C)(C)C)n1)c1ccccc1` [Example 158], the log p was 3.25^[a].

Staying with this series, now noted: method [b]: LC-MS at pH 2.7, 0.1% formic acid in water and acetonitrile, linear gradient 10% to 95% acetonitrile.
`Cn1nnnc1C(=NOCc1nc(C#CCc2ccccc2)ccc1F)c1ccccc1` [Example 100]: the log p was 4.24^[b].
`Cn1nnnc1C(=NOCc1nc(C#CCC2CCCC2)ccc1F)c1ccccc1` [Example 98]: the log p is 4.92^[b].
`Cn1nnnc1C(=NOCc1cccc(C#CC2CC2)n1)c1ccccc1` [Example 109]: the log p was 3.46^[b].
For `CCCCCN(C)C(=O)c1cccc(CON=C(c2ccccc2)c2nnnn2C)n1` [Example 85], the log p is 3.29^[b].
As to `Cn1nnnc1C(=NOCc1nc(C#CCOc2ccccc2)ccc1F)c1ccccc1` [Example 106], the log p is 4.04^[b].
On to `Cc1nnnn1C(=NOCc1cccc(NC(=S)NCc2ccc(Cl)c(Cl)c2)n1)c1ccccc1` [Example 4], for which the log p was 4.09^[b].
With `CCCC#Cc1nc(CON=C(c2ccccc2)c2nnnn2C)c(Cl)s1` [Example 115], the log p was 4.75^[b].
With `CCCCC#Cc1nc(CON=C(c2ccccc2)c2nnnn2C)ccc1OC` [Example 127], the log p was 3.96^[b].
`Cn1nnnc1C(=NOCc1cccc(C#CC2=CCCCC2)n1)c1ccccc1` [Example 124]: the log p was 4.34^[b].
For the compound `COc1ccc(CON=C(c2ccccc2)c2nnnn2C)nc1C#CCCCc1ccccc1` [Example 130], the log p was 4.44^[b].
On to `Cn1nnnc1C(=NOCc1nc(C#CCCCC#N)sc1Cl)c1ccccc1` [Example 122], for which the log p was 3.58^[b].
With `Cn1nnnc1C(=NOCc1nc(C#CCCCCl)ccc1F)c1ccccc1` [Example 105], the log p is 3.87^[b].
On to `Cc1nnnn1C(=NOCc1cccc(N=CNC#N)n1)c1ccccc1` [Example 1], for which the log p is 2.22^[b].
In the case of `Cc1nnnn1C(=NOCc1cccc(NC(=S)NC2CCCC2)n1)c1ccccc1` [Example 9], the log p was 3.53^[b].
`Cn1nnnc1C(=NOCc1nc(C#CC2CCCCC2)ccc1F)c1ccccc1` [Example 108]: the log p is 4.92^[b].
Turning to `Cc1nnnn1C(=NOCc1cccc(NC(=S)NC2CCCCC2)n1)c1ccccc1` [Example 8], the log p was 3.81^[b].
Turning to `CC(C)NC(=O)c1cccc(CON=C(c2ccccc2)c2nnnn2C)n1` [Example 84], the log p was 2.84^[b].

Staying with this series, now noted: method [b]: LC-MS at pH 2.7 with 0.1% formic acid in water and acetonitrile (0.1% formic acid), linear gradient 10% to 95% acetonitrile.
For `CCCCONc1cccc(CON=C(c2ccccc2)c2nnnn2C)n1` [Example 286], the log p was 3.39^[b].
Turning to `CCCCCONc1cccc(CON=C(c2ccccc2)c2nnnn2C)n1` [Example 269, 6-[({[(1-methyl-1H-tetrazol-5-yl)(phenyl)methylene]amino}oxy)methyl]-(pentyloxy)pyridin-2-amine], the log p is 3.87^[b].
On the same count and under the same terms, the figure for `CSc1cccc(C(=NOCc2csc(Br)n2)c2nnnn2C)c1` [Example 299] is 3.55^[b].
With `CC(C)CSC(=O)Nc1cccc(CON=C(c2ccccc2)c2nnnn2C)n1` [Example 308], the log p is 4.21^[b].
With `CCCCC#Cc1nc(CON=C(c2cccc(SC)c2)c2nnnn2C)cs1` [Example 301], the log p was 4.78^[b].
On to `CSc1cccc(C(=NOCc2cccc(NCC3CCCCC3)n2)c2nnnn2C)c1` [Example 292], for which the log p was 3.02^[b].
Same read-out and setting: the result for `CCc1ccc(C#Cc2nc(CON=C(c3cccc(F)c3)c3nnnn3C)cs2)cc1` [Example 293] reads 5^[b]; that for `Cn1nnnc1C(=NOCc1cccc(N(OCc2ccccc2)C(=O)OC(C)(C)C)n1)c1ccccc1` [Example 282], 4.65^[b].
Consider `CSc1cccc(C(=NOCc2cccc(NCCC3CCCCC3)n2)c2nnnn2C)c1` [Example 298], for which the log p was 3.17^[b].

The series is the same for the next values; noted with them: method [b]: LC-MS, pH 2.7 with 0.1% formic acid in water and acetonitrile (0.1% formic acid), linear gradient 10% to 95% acetonitrile.
For `COC(C)(C)C#Cc1nc(CON=C(c2ccccc2)c2nnnn2C)cs1` [Example 196], the log p is 3.53^[b].
Regarding `Cn1nnnc1C(=NOCc1cccc(NCCOC2CCCCC2)n1)c1ccccc1` [Example 203], the log p was 2.35^[b].
With `Cc1nnnn1C(=NOCc1csc(C#CCC2CCCCC2)n1)c1ccccc1` [Example 169], the log p was 5.41^[b].
Same read-out and setting: the figure for `Cn1nnnc1C(=NOCc1cccc(C#Cc2ccc(F)cc2)n1)c1ccccc1` [Example 223] is 4.11^[b].
Regarding `Cn1nnnc1C(=NOCc1cccc(C#Cc2ccc(C#N)cc2)n1)c1ccccc1` [Example 224], the log p was 3.69^[b].
Take `COc1ccc(C#Cc2cccc(CON=C(c3ccccc3)c3nnnn3C)n2)cc1` [Example 228]: the log p is 4.01^[b].
Turning to `Cc1nnnn1C(=NOCc1csc(C#CCCCc2ccccc2)n1)c1ccccc1` [Example 166], the log p is 4.84^[b].
Turning to `COC(=O)CCCC#Cc1nc(CON=C(c2ccccc2)c2nnnn2C)cs1` [Example 195], the log p is 3.33^[b].
The same measure, in the same setting: the result for `CCOc1ccc(C#Cc2cccc(CON=C(c3ccccc3)c3nnnn3C)n2)cc1` [Example 227] reads 4.41^[b]; that for `Cn1nnnc1C(=NOCc1csc(Br)n1)c1cccc(F)c1` [Example 146], 3.23^[b]; that for `Cn1nnnc1C(=NOCc1cccc(C#CCCCCl)n1)c1ccccc1` [Example 212], 3.71^[b].
With `Cn1nnnc1C(=NOCc1csc(C#Cc2ccc(C#N)cc2)n1)c1ccccc1` [Example 191], the log p was 3.76^[b].
In the case of `Cc1nnnn1C(=NOCc1csc(C#CCCc2ccccc2)n1)c1ccccc1` [Example 168], the log p is 4.44^[b].
As to `Cn1nnnc1C(=NOCc1cccc(C#Cc2cccs2)n1)c1ccccc1` [Example 206], the log p is 3.94^[b].
On to `Cn1nnnc1C(=NOCc1csc(C#CCCCc2ccccc2)n1)c1cccc(F)c1` [Example 150], for which the log p was 4.89^[b].
With `Cn1nnnc1C(=NOCc1csc(C#Cc2ccc(F)cc2)n1)c1ccccc1` [Example 262], the log p is 4.16^[b].
Take `CCCc1ccc(C#Cc2cccc(CON=C(c3ccccc3)c3nnnn3C)n2)cc1` [Example 244]: the log p is 5.23^[b].
Regarding `Cn1nnnc1C(=NOCc1cccc(C#Cc2ccc(C(C)(C)C)cc2)n1)c1ccccc1` [Example 245], the log p is 5.44^[b].

The same series, now with this note: method [c]: LC-MS, pH 7.8 with 0.001 molar ammonium hydrogen carbonate solution in water, linear gradient 10% to 95% acetonitrile.
`Cn1nnnc1C(=NOCc1cccc(C2OCC(COCc3ccccc3)O2)n1)c1ccccc1` (stereo not shown) [Example 173]: the log p is 3.89^[c].

The same series, now with this note: reversed phase HPLC column, pH 2.7, log p, method [b]: LC-MS at pH 2.7, 0.1% formic acid in water and acetonitrile, linear gradient 10% to 95% acetonitrile.
`Cn1nnnc1C(=NOCc1cccc(CN)n1)c1ccccc1` [Example 52, 1-{6-[({[(1-methyl-1H-tetrazol-5-yl)(phenyl)methylene]amino}oxy)methyl]pyridin-2-yl}methanamine] came in with a chromatographic logP of 1.23.

The same series, now with this note: reversed phase HPLC column, pH 2.7, log p, method [b]: LC-MS at pH 2.7 with 0.1% formic acid in water and acetonitrile (0.1% formic acid), linear gradient 10% to 95% acetonitrile.
Regarding `CCCCCCNc1nc(CON=C(c2cccc(SC)c2)c2nnnn2C)cs1` [Example 297], the chromatographic logP came to 3.92.
As for `CCCCCCNc1cccc(CON=C(c2cccc(N(C)C)c2)c2nnnn2C)n1` [Example 311], the chromatographic logP was 2.44.

Still in this series, the particulars now being: reversed phase HPLC column, pH 2.7, log p, method [b]: LC-MS, pH 2.7 with 0.1% formic acid in water and acetonitrile (0.1% formic acid), linear gradient 10% to 95% acetonitrile.
`Cc1nnnn1C(=NOCc1csc(C#CC2CC2)n1)c1ccccc1` [Example 159] gave a chromatographic logP of 3.65.

The same series, now with this note: reversed phase HPLC columns, pH 2.3, log p, method [a]: HPLC on reversed phase columns, pH 2.3 with 0.1% phosphoric acid and acetonitrile as eluent.
In turn, `Cn1nnnc1C(=NOCc1cccc(C=NO)n1)c1ccccc1` [Example 177, N-({6-[(hydroxyimino)methyl]pyridin-2-yl}methoxy)-1-(1-methyl-1H-tetrazol-5-yl)-1-phenylmethanimine] showed a chromatographic logP of 2.16.
